In publication PMC6429356, “Development of Anthraquinone Analogues as Phosphoglycerate Mutase 1 Inhibitors” (Molecules, 2019):
“Also recorded” adds a separate entry of the source. Like-named read-outs stand apart in the source and are kept apart here.

Key:
PGAM1 [1] = molecular target: T1, PGAM1 (Homo sapiens, UniProt P18669); test: PGAM1 enzymatic assay (enolase-pyruvate kinase-LDH coupled, OD 340 nm); type: biochemical; settings: optimized enzymatic assay; mean ± s.d. (n = 3)
T1 construct: His6 (C); made in house
T1 sequence (P18669 whole entry): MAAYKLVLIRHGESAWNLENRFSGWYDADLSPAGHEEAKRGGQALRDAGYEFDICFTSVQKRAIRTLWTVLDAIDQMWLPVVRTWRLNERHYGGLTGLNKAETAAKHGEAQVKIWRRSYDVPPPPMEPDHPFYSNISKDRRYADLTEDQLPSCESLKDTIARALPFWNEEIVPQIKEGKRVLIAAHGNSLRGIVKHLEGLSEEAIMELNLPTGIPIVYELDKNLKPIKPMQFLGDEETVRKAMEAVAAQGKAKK
Method: (§1) Firstly, 1 μL inhibitor in dimethyl sulfoxide (DMSO) incubated with 49 μL 4.6 nM recombinant PGAM1, then 50 μL enzyme mix containing 3 units/mL enolase (Sigma-Aldrich, Saint Louis, MO, USA), 3 units/mL recombinant pyruvate kinase M2 (Sigma-Aldrich), 0.6 units/mL recombinant lactatdehydrogenase (LDH, Sigma-Aldrich), 100 mM Tris-HCl, 100 mM KCl, 5 mM MgCl2, 1 mM adenosine diphosphate (ADP), 0.2 mM the reduced form of nicotinamide adenine dinucleotide (NADH) and 4 mM 3PG was added. PGAM1 activity was measured as the decrease in OD at 340 nm. In addition, we performed a counter screening in which 4mM 2PG was added to 50 μL reaction mix containing the indicated inhibitor, 3 units/mL enolase (Sigma-Aldrich), 3 units/mL recombinant pyruvate kinase M2 (Sigma-Aldrich), 0.6 units/mL recombinant LDH (Sigma-Aldrich), 100 mM Tris-HCl, 100 mM KCl, 5 mM MgCl2, 1 mM ADP and 0.2 mM NADH. The other three enzyme activity was measured as the decrease in OD at 340 nm.

[2] = system: enolase-pyruvate kinase-LDH; test: Counter screening: control linked enzyme assay with 2PG; type: biochemical; settings: 0.5 μM compound, pyruvate kinase M2, LDH without PGAM1, mean ± s.d. (n = 2)
Method: as §1

A549 cells = test: Cell viability assay (MTT, 72 h), A549; type: cell-based; settings: Homo sapiens, proliferation, mean ± s.d. (n = 3)
Method: (§2) The H1299 cell line was obtained from Guangzhou Jenniobio Biotechnology Co., Ltd. (Guangzhou, China), PC9 and A549 cells were gifted from Deng Jiong’s lab in the School of Medicine, Shanghai Jiao Tong University, Shanghai, China). H1299, PC9 cells were cultured in RPMI-1640 medium and A549 cells were cultured in F-12K medium containing 10% fetal bovine serum (FBS), 100 units/mL of Penicillin and 100 μg/mL Streptomycin. In cell viability assays, 2000 H1299 cells, A549 cells or 1000 PC9 cells per well were seeded in 96-well plate. After attachment for 24 h, the cells were treated with indicated inhibitor for 72 h. After incubation with 0.5 mg/mL methylthiazolyldiphenyl-tetrazolium bromide (MTT) for 4 h, cell viability was measured as the OD at 570 nm.

PC9 cells = test: Cell viability assay (MTT, 72 h), PC9; type: cell-based; settings: Homo sapiens, PC-9, proliferation, mean ± s.d. (n = 3)
Method: as §2

H1299 cells [3] = test: Cell viability assay (MTT, 72 h), H1299; type: cell-based; settings: Homo sapiens, NCI-H1299, proliferation, mean ± s.d. (n = 3)
Method: as §2

[4] = system: PGAM1 mutations (F22A, R116H and R191H); test: Inhibition of PGAM1 mutants compared with wild type; type: biochemical; settings: 5 μM compound
Excerpt: To further understand the molecular mechanism of the anthraquinone derivatives interacting with PGAM1, we determined the X-ray structure of PGAM1 in complex with compound 9i at resolution of 1.98 Å (Table 5). Compound 9i occupied a novel allosteric site adjacent to substrate binding site with nice electron density (Figure 3A,B). The allosteric pocket was surrounded by the residues of F22, R90, K100, R116 and R191. In detail, the anthraquinone scaffold and sulfonamide of compound 9i interacted with the main chain carbonyl of K100 through water bridges (Figure 3C). In addition, a hydrophobic interaction was observed between F22 and chlorine-substituted phenyl ring of compound 9i (Figure 3C). […]
Firstly, 1 μL inhibitor in dimethyl sulfoxide (DMSO) incubated with 49 μL 4.6 nM recombinant PGAM1, then 50 μL enzyme mix containing 3 units/mL enolase (Sigma-Aldrich, Saint Louis, MO, USA), 3 units/mL recombinant pyruvate kinase M2 (Sigma-Aldrich), 0.6 units/mL recombinant lactatdehydrogenase (LDH, Sigma-Aldrich), 100 mM Tris-HCl, 100 mM KCl, 5 mM MgCl2, 1 mM adenosine diphosphate (ADP), 0.2 mM the reduced form of nicotinamide adenine dinucleotide (NADH) and 4 mM 3PG was added. PGAM1 activity was measured as the decrease in OD at 340 nm. […] The other three enzyme activity was measured as the decrease in OD at 340 nm. […]

PGAM1 [5] = molecular target: T1, PGAM1; test: Substrate competitive assay with 3PG; type: biochemical
Solubility = type: physicochemical; settings: remark in text, no method given
H1299 cells [6] = system: H1299 cells; parameters: method as in PMID 28611670, PMID 23153533, PMID 29530347; settings: Figure 1; read-out: H1299 cells IC50 (reported inhibitors); cited from earlier work
MDA-MB-231 cells = system: MDA-MB-231 cells; parameters: method as in PMID 16200062; settings: Figure 1; read-out: MDA-MB-231 cells IC50 (reported inhibitor); cited from earlier work
PGAM1 [7] = molecular target: T1, PGAM1; parameters: method as in PMID 16200062, PMID 28611670, PMID 23153533, PMID 29530347; settings: Figure 1; read-out: PGAM1 IC50 (reported inhibitors); cited from earlier work

Structure (SMILES)	IC50 (PGAM1 [1]) [µM]	Inhibition in the Control Linked Enzyme Assay (0.5 μM) [2] [%]	IC50 (A549 cells) [µM]	IC50 (PC9 cells) [µM]	IC50 (H1299 cells [3]) [µM]	also measured
O=C1c2ccccc2C(=O)c2c1cc(NS(=O)(=O)c1ccccc1OC(F)(F)F)c(O)c2O [Compound 9d, N-(3,4-Dihydroxy-9,10-dioxo-9,10-dihydroanthracen-2-yl)-2-(trifluoromethoxy) benzenesulfonamide]	2.2 ± 0.5	–	17 ± 4.9	44.2 ± 1.5	13.9 ± 3.6	–
O=C1c2ccccc2C(=O)c2c1cc(NS(=O)(=O)c1ccccc1F)c(O)c2O [Compound 9g, N-(3,4-Dihydroxy-9,10-dioxo-9,10-dihydroanthracen-2-yl)-2-fluorobenzenesulfonamide]	0.79 ± 0.04	10.2 ± 3.0	–	–	31.3 ± 1.9	–
O=C1c2ccccc2C(=O)c2c1cc(NS(=O)(=O)c1cccc(F)c1F)c(O)c2O [Compound 9h, N-(3,4-Dihydroxy-9,10-dioxo-9,10-dihydroanthracen-2-yl)-2,3-difluorobenzenesulfonamide]	0.89 ± 0.13	0.06 ± 0.4	–	–	45.7 ± 2.7	–
O=C1c2ccccc2C(=O)c2c1cc(NS(=O)(=O)c1c(Cl)cccc1Cl)c(O)c2O [Compound 9k, 2,6-Dichloro-N-(3,4-dihydroxy-9,10-dioxo-9,10-dihydroanthracen-2-yl) benzenesulfonamide]	0.89 ± 0.33	0.5 ± 3.2	–	–	34.6 ± 2.4	–
O=C1c2ccccc2C(=O)c2c1cc(NS(=O)(=O)c1c(Cl)cc(Cl)cc1Cl)c(O)c2O [Compound 9l, 2,4,6-Trichloro-N-(3,4-dihydroxy-9,10-dioxo-9,10-dihydroanthracen-2-yl) benzenesulfonamide]	0.9 ± 0.26	0.2 ± 1.7	> 50	> 50	6.2 ± 1.2	–
O=C1c2ccccc2C(=O)c2c1cc(NS(=O)(=O)c1ccccc1Br)c(O)c2O [Compound 9n, 2-Bromo-N-(3,4-dihydroxy-9,10-dioxo-9,10-dihydroanthracen-2-yl) benzenesulfonamide]	0.2 ± 0.04	6.1 ± 0.8	–	–	50 ± 0.6	–
O=C1c2ccccc2C(=O)c2c1cc(NS(=O)(=O)c1cccc(Br)c1)c(O)c2O [Compound 9o, 3-Bromo-N-(3,4-dihydroxy-9,10-dioxo-9,10-dihydroanthracen-2-yl) benzenesulfonamide]	0.35 ± 0.005	7.7 ± 0.2	–	–	24.5 ± 0.2	–
O=C1c2ccccc2C(=O)c2c1cc(NS(=O)(=O)c1ccccc1I)c(O)c2O [Compound 9q, 2-Iodo-N-(3,4-dihydroxy-9,10-dioxo-9,10-dihydroanthracen-2-yl) benzenesulfonamide]	0.26 ± 0.03	−2.3 ± 2.4	–	–	26.4 ± 3.8	–
O=c1c2c(O)cccc2oc2cc(NS(=O)(=O)c3ccc(N4CCCC4)cc3)c(O)c(O)c12 [Compound 12r]	–	–	–	–	–	IC50 (H1299 cells [6]): 5 µM
COc1c(N(C)S(=O)(=O)c2ccc(Cl)cc2)cc2c(c1O)C(=O)c1ccccc1C2=O [Compound 14d, 4-chloro-N-(4-hydroxy-3-methoxy-9,10-dioxo-9,10-dihydroanthracen-2-yl)-N-methyl-benzenesulfonamide]	7.01 ± 0.92	–	9.9 ± 0.2	49.1 ± 1.9	10.3 ± 0.8	–
O=C(O[C@@H]1Cc2c(O)cc(O)cc2O[C@@H]1c1cc(O)c(O)c(O)c1)c1cc(O)c(O)c(O)c1 [EGCG, (−)-epigallocatechin-3-gallate]	–	–	–	–	–	IC50 (H1299 cells [6]): > 80 µM
C#CCCCC(=O)OC(C)(C)C1CCC2(CO2)C(OC(=O)NC(Cc2c[nH]c3ccccc23)C(=O)OCc2ccccc2)C1 (stereo not drawn) [MJE3]	–	–	–	–	–	IC50 (MDA-MB-231 cells): 19 µM; IC50 (PGAM1 [7]): 33 µM
O=C1c2ccccc2C(=O)c2c1cc(S(=O)(=O)Nc1ccc(C(F)(F)F)cc1)c(O)c2O [PGMI-004A]	–	–	–	–	–	IC50 (H1299 cells [6]): 25.6 µM

More lines, main results first:

IC50 (PGAM1 [1]) [µM]	Inhibition in the Control Linked Enzyme Assay (0.5 μM) [2] [%]	IC50 (A549 cells) [µM]	IC50 (PC9 cells) [µM]	IC50 (H1299 cells [3]) [µM]	Structure (SMILES)	also measured
0.9 ± 0.07	3.7 ± 1.8	8 ± 0.8	10.2 ± 0.7	16.6 ± 1.8	O=C1c2ccccc2C(=O)c2c1cc(NS(=O)(=O)c1ccc(OC(F)(F)F)cc1)c(O)c2O [Compound 9c, N-(3,4-Dihydroxy-9,10-dioxo-9,10-dihydroanthracen-2-yl)-4-(trifluoromethoxy) benzenesulfonamide]	–
0.61 ± 0.12	6.7 ± 0.2	–	–	26.3 ± 4.5	N#Cc1ccc(S(=O)(=O)Nc2cc3c(c(O)c2O)C(=O)c2ccccc2C3=O)cc1 [Compound 9e, 4-Cyano-N-(3,4-dihydroxy-9,10-dioxo-9,10-dihydroanthracen-2-yl) benzenesulfonamide]	–
0.54 ± 0.07	5.7 ± 0.7	–	–	24.2 ± 2.6	O=C1c2ccccc2C(=O)c2c1cc(NS(=O)(=O)c1ccc(F)cc1)c(O)c2O [Compound 9f, N-(3,4-Dihydroxy-9,10-dioxo-9,10-dihydroanthracen-2-yl)-4-fluorobenzenesulfonamide]	–
0.27 ± 0.04	−6.4 ± 5.0	12.7 ± 2.7	13.8 ± 1	6.9 ± 1.2	O=C1c2ccccc2C(=O)c2c1cc(NS(=O)(=O)c1ccc(Cl)cc1)c(O)c2O [Compound 9i, 4-Chloro-N-(3,4-dihydroxy-9,10-dioxo-9,10-dihydroanthracen-2-yl) benzenesulfonamide]	Inhibition of PGAM1 mutations versus wild type [4]: failed to inhibit mutations of PGAM1 (F22A, R116H and R191H) as effectively as the wild type; Mode of inhibition with respect to substrate 3PG (PGAM1 [5]): noncompetitive inhibitor; also recorded: non-competitive; also recorded: noncompetitive binding; Solubility (Solubility): good solubility
0.28 ± 0.07	−2.0 ± 5.1	–	–	23.7 ± 1.1	O=C1c2ccccc2C(=O)c2c1cc(NS(=O)(=O)c1ccc(Cl)cc1Cl)c(O)c2O [Compound 9j, 2,4-Dichloro-N-(3,4-dihydroxy-9,10-dioxo-9,10-dihydroanthracen-2-yl) benzenesulfonamide]	–
0.26 ± 0.02	−0.1 ± 2.5	–	–	28.1 ± 1.9	O=C1c2ccccc2C(=O)c2c1cc(NS(=O)(=O)c1ccc(Br)cc1)c(O)c2O [Compound 9m, 4-Bromo-N-(3,4-dihydroxy-9,10-dioxo-9,10-dihydroanthracen-2-yl) benzenesulfonamide]	–
0.47 ± 0.07	1.9 ± 0.1	10.3 ± 1.4	13.4 ± 1.8	17.3 ± 3.9	O=C1c2ccccc2C(=O)c2c1cc(NS(=O)(=O)c1ccc(I)cc1)c(O)c2O [Compound 9p, 4-Iodo-N-(3,4-dihydroxy-9,10-dioxo-9,10-dihydroanthracen-2-yl) benzenesulfonamide]	–
